Results taken from article PMC3359361, “Antimalarial Activity and Mechanisms of Action of Two Novel 4-Aminoquinolines against Chloroquine-Resistant Parasites” (PLoS ONE, 2012).

Assays:
[1] = system: P. falciparum W2 clone (CQ-resistant and mefloquine-sensitive); assay: ELISA anti-HRPII assay, W2 clone; assay type: cell-based; conditions: Plasmodium falciparum
Description: (§1) Human erythrocytes (A^+) and serum blood group A+ were kindly donated by Center of Hemotherapy and Hemathology of Minas Gerais (HEMOMINAS). Immediately before the tests, ring stage-parasites were synchronized in sorbitol. Synchronized parasites were stained with orange green in pre-dried coverslips then immediately examined under a fluorescent microscope. The suspension was adjusted for parasitemia and hematocrit as described below for each test. The infected red blood cells were distributed in a 96-well microtiter plate (Corning, Santa Clara, CA, EUA) at 180 µL/well, in which 20 µL of the test drugs and controls were previously diluted at different concentrations (400-0.625 ng/mL) in 0.005% DMSO (v/v) (Sigma, USA).
(§2) The [^3H]-hypoxanthine assay was performed at 1% parasitemia and 1% hematocrit and the level of isotope incorporation was read in a beta-counter (PerkinElmer, Waltham, MA, EUA). The anti-HRPII test was performed at 0.05% parasitemia and 1.5% hematocrit and the HRPII quantification was read at 450 nm in a spectrophotometer (SpectraMax340PC^384, Molecular Devices). […] Curve-fitting was performed using Origin 8.0 software (OriginLab Corporation, Northampton, MA, USA).

[2] = system: P. falciparum W2 clone (CQ-resistant and mefloquine-sensitive); assay: 3H hypoxanthine incorporation, W2 clone; assay type: cell-based; conditions: Plasmodium falciparum
Description: as §1, §2

[3] = system: P. falciparum 3D7 strain (CQ-sensitive); assay: ELISA anti-HRPII assay, 3D7 strain; assay type: cell-based; conditions: Plasmodium falciparum
Description: as §1, §2

[4] = system: P. falciparum 3D7 strain (CQ-sensitive); assay: 3H hypoxanthine incorporation, 3D7 strain; assay type: cell-based; conditions: Plasmodium falciparum
Description: as §1, §2

P. berghei, NK65 strain = assay: Suppressive parasite growth test in P. berghei infected mice; assay type: in vivo; conditions: for Time of survival / Percent reduction of parasitemia, day 5 / Percent reduction of parasitemia, day 8 / Percent reduction of parasitemia, day 10: three consecutive days; for Percent reduction of parasitemia, day 5: day 5 post-infection; for Percent reduction of parasitemia, day 8: day 8 post-infection; for Percent reduction of parasitemia, day 10: day 10 post-infection
Method: A suppressive parasite growth test was used with P. berghei, NK65 strain (originally received from the New York University Medical School) infected mice as described previously with some modifications. Briefly, adult Swiss outbred mice (20±2 g weigh) were inoculated with 1×10^5 red blood cells infected with P. berghei, by intraperitoneal route. The infected mice were maintained together for at least 2 h and then divided randomly into groups of 3–5 animals per cage, which were subsequently treated with 25 and 50 mg/kg of each compound diluted in DMSO 3% (v/v) given daily by oral gavage for three consecutive days. […] Blood smears from mouse tails were prepared on days 5, 8 and 10 post-infection and then methanol-fixed, stained with Giemsa and examined microscopically.

[5] = system: monkey kidney cell line (BGM); assay: Cytotoxicity by MTT assay, BGM cells; assay type: cell-based
Method: (§3) The human hepatoma cell line (HepG2) was originally received from the New University of Lisbon, and the monkey kidney cell line (BGM) from the Federal University of Minas Gerais. […] For the in vitro tests, a confluent cell monolayer was trypsinized, washed with culture medium, distributed in a flat-bottomed 96-well plate (5×10^3 cells/well) and incubated for 18 h at 37°C to ensure cell adherence.
(§4) The cytotoxicity was evaluated with the MTT assay, 3-(4,5-Dimethylthiazol-2-yl)-2,5-diphenyltetrazolium bromide. Briefly, the HepG2 and BGM cell lines were incubated with 20 µL of the compounds at different concentrations (1000-1 µg/mL) for 24 h in a 5% CO2 and air atmosphere at 37°C. For the MTT assay, which evaluates mitochondrial viability, 20 µL of MTT solution (5 mg/mL) were added and the plates were incubated for a further 3 h. After incubation, the supernatant was carefully removed from the wells, followed by the addition of 100 µL DMSO with thorough mixing.
(§5) The neutral red assay was used to evaluate cell viability by the accumulation of dye in the viable cell lysosome. […] Cell viability was expressed as the percentage of control absorbance obtained in untreated cells after subtracting the absorbance of the appropriate background. Lastly, the minimum lethal dose for 50% of the cells (MLD50) was determined as previously described.

[6] = system: human hepatoma cell line (HepG2); assay: Cytotoxicity by MTT assay, HepG2 cells; assay type: cell-based
Method: as §3, §4, §5

hemozoin formation = assay: Inhibition of hemozoin assay; assay type: biochemical; conditions: dose-dependent; p<0.05 vs drug-free controls; two experiments in triplicate
Method: The hemozoin inhibition assay was performed as described by Ncokazi et al., (2002) with some modifications. Briefly, 10.1 µL of the aminoquinoline derivatives at different concentrations (40-0.62 mg/mL) and 101.2 µL of the hematin stock solution (1.68 mM in 0.1 M NaOH) were combined in triplicate in a flat-bottomed 96-well plate. The solutions were further mixed and 58.7 µL of acetate solution (12.9 M, pH 5.0) then added to each well. After incubation at 60°C, 80 µL of 30% (v/v) pyridine solution in 20 mM HEPES, pH 7.5, were added at room temperature. The solids formed were resuspended and allowed to settle for 15 min at room temperature. Then, 38 µL of the supernatant were transferred to a new plate and diluted to 250 µL with a 30% (v/v) pyridine solution (20 mM HEPES, pH 7.5). The color reaction was read in a spectophometer at 405 nm and the results were expressed as the concentration of free heme in each well, which was calculated from the standard absorbance curve of a known hemin solution. CQ was used as a positive control and the cut off was determined by the amount of free heme in the drug-free control. Each compound was evaluated in two different experiments.

## CCN(CC)CCCC(C)Nc1ccnc2cc(Cl)ccc12 (stereo not shown) [CQ, Chloroquine]
[1]; W2, read-out: IC50 HRPII, W2 (CQ resistant)
  IC50: 120 nM
[2]; W2, read-out: IC50 Hypoxanthine, W2 (CQ resistant)
  IC50: 180 nM
[3]; 3D7, read-out: IC50 HRPII, 3D7 (CQ sensitive)
  IC50: 6.9 ± 0.9 nM
[4]; 3D7, read-out: IC50 Hypoxanthine, 3D7 (CQ sensitive)
  IC50: 7.4 ± 1.2 nM
P. berghei, NK65 strain; 20 mg/kg daily
  Time of survival: >30 days
  Percent reduction of parasitemia, day 5: 100%
  Percent reduction of parasitemia, day 8: 100%
  Percent reduction of parasitemia, day 10: 100%
P. berghei, NK65 strain; CQ 20 mg/kg, day not given
  Suppression of parasitemia: 100%

## NCCNCCNc1ccnc2cc(Cl)ccc12 [MAQ, N^1-(2-aminoethyl)-N^2-(7-chloroquinol-4-yl)ethane-1,2-diamine]
[1]; W2, dose that inhibits 50% of blood parasites growth, three or four experiments, read-out: IC50 HRPII, W2 (CQ resistant)
  IC50: 260 ± 20 nM
[2]; W2, dose that inhibits 50% of blood parasites growth, three or four experiments, read-out: IC50 Hypoxanthine, W2 (CQ resistant)
  IC50: 320 ± 70 nM
[3]; 3D7, dose that inhibits 50% of blood parasites growth, three or four experiments, read-out: IC50 HRPII, 3D7 (CQ sensitive)
  IC50: 26 ± 2 nM
[4]; 3D7, dose that inhibits 50% of blood parasites growth, three or four experiments, read-out: IC50 Hypoxanthine, 3D7 (CQ sensitive)
  IC50: 66 ± 5 nM
[5]; MDL50/IC50
  Selectivity index BGM: 384
[5]; monkey, 24 h
  MDL50 BGM: 100 ± 0.0 µM
[6]; MDL50/IC50
  Selectivity index HepG2: 1038
[6]; human, 24 h
  MDL50 HepG2: 270 ± 10 µM
P. berghei, NK65 strain; 25 mg/kg
  Activity in vivo (class): active
P. berghei, NK65 strain; 25 mg/kg daily, oral gavage
  Time of survival: 24 ± 1 days
  Percent reduction of parasitemia, day 5: 91%
  Percent reduction of parasitemia, day 8: 61%
  Percent reduction of parasitemia, day 10: 70%
P. berghei, NK65 strain; 50 mg/kg daily, oral gavage
  Time of survival: 25 ± 1 days
  Percent reduction of parasitemia, day 5: 95%
  Percent reduction of parasitemia, day 8: 71%
  Percent reduction of parasitemia, day 10: 76%
P. berghei, NK65 strain; 50 mg/kg, days 5, 8 and 10 post-infection
  Activity in vivo (class): active
Hemozoin formation
  Inhibition of hemozoin formation in vitro: more evident with MAQ than with BAQ or CQ
